Literature values, collected in paper PMC4258163 (Bioorganic & medicinal chemistry letters, 2014).

How the values were obtained:
[1] = systemic administration, mice
animal model of anxiety = settings: versus selective FAAH or TRPV1 inhibitors

SMILES	excess of anandamide in the blood of patients (osteoarthritis pain; patients treated with the inhibitor)	Efficacy in treating osteoarthritis pain (osteoarthritis pain; phase II clinical trial, compared with naproxen)	Hyperthermia [1]	Effectiveness in an animal model of anxiety (animal model of anxiety)
O=C(Nc1cccnn1)N1CCC(=Cc2cccc(Oc3ccc(C(F)(F)F)cn3)c2)CC1 [PF-04457845]	greater than 10 fold	lack of efficacy	–	–
CCCCC/C=C\C/C=C\C/C=C\C/C=C\CCCC(=O)NCCc1c[nH]c2ccc(O)cc12 [AA-5-HT, N-arachidonoyl serotonin]	–	–	did not cause hyperthermia	more effective
